Columns and labels:
[1] = rat, in vivo, po, 20 mg/kg
Procedure: The study described below was carried out to evaluate the plasma kinetics after a single oral administration and the efficiency of the intestinal absorption and the pharmacokinetics of solid non-crystalline and crystalline forms of obeticholic acid. The profiles of obeticholic acid plasma concentration vs time, the tmax, Cmax and AUC after administration of obeticholic acid Form 1 (non-crystalline) or Form F were compared (see FIGS. 37-38)
Obeticholic acid Form 1 (non-crystalline) and Form F were administered to rats and in each animal blood was collected at different period of times for at least 3 hours. Six animals were studied for each form of obeticholic acid.
The formulation was prepared as a suspension in water at pH 4. The study model is adult male Sprague Dawley rats about 225 to about 250 g (Harlan Laboratories). Six animals were used per dosage route. The dosage is PO 20 mg/kg/5 mL. The animals were fasted overnight before treatment with the formulation of obeticholic acid. Oral administration was performed by gastric gavage.
On day one animals were be fitted with a cannula implanted in the left jugular vein (SOP VIVO/SAF6), anaesthesia was obtained by Isoflurane. The experiment was started after one day of recovery from surgery. About 500 μL of blood (250 μL of plasma) was taken via cannula in a heparinised syringe (Na Heparin) and collected immediately in microtubes in an ice/water bath. Within 1 hour, samples were centrifuged at 10000×g for 5 minutes at 4° C. Plasma was immediately transferred in microtubes and stored at −20° C. Samples of blood were collected 30 minutes, 1 hour, 1.3 hour, 2 hours, and 3 hour post-dose. Plasma samples were analyzed using the HPLC-ES/MS/MS quantitative method. Pharmacokinetics study was preformed using non-compartmental methods.

[2] = 1 week
Procedure: Briefly, the solid was suspended in water at a low pH (HCl 0.1 mol/L) and left to equilibrate at 25° C. for one week under slightly mixing. The saturate solution was filtered and the concentration of the compound in solution measured by HPLC-ES-MS/MS.

[3] = Log P determination by potentiometric titration (octanol/ISA water); assay type: physicochemical; settings: potentiometry
Procedure: Data were collected by potentiometric titration on a Sirius GlpKa instrument using three ratios of octanol: ionic-strength adjusted (ISA) water to generate Log P, Log Pion, and Log D values. The data were refined using Refinement Pro software v1.0. Prediction of Log P values was made using ACD v9 and Syracuse KOWWIN v1.67 software.
Log P was predicted using ACD software then measured by potentiometry. Three titrations were performed at three different octanol/ISA water ratios, giving the difference curve plotted in FIG. 30. The black curve is the pure aqueous pKa titration and the 3 colored curves correspond to the three octanol/ISA water ratios. The shifts in pKa enable determination of Log P.
Log D is the distribution coefficient, representing the combined lipophilicity of all species present at a specific pH. Log P is a compound constant, which corresponds to the partition coefficient of the pure neutral species, while Log Pion is that of the pure ionized species. Log P and Log Pion can be determined from the lipophilicity curve, as the intersection of the Y axis with respectively the tangent at the start of the pH scale (when the molecule is purely in its neutral form) and the tangent at the end of the pH scale (when the molecule is completely ionized).

[4] = Gravimetric Vapor Sorption (GVS); assay type: physicochemical
Procedure: (§1) Sorption isotherms were obtained using a SMS DVS Intrinsic moisture sorption analyzer, controlled by DVS Intrinsic Control software v 1.0.0.30. The sample temperature was maintained at 25° C. by the instrument controls. The humidity was controlled by mixing streams of dry and wet nitrogen, with a total flow rate of 200 ml·min^−1. The relative humidity was measured by a calibrated Rotronic probe (dynamic range of 1.0-100% RH), located near the sample. The weight change, (mass relaxation) of the sample as a function of % RH (relative humidity) was constantly monitored by the microbalance (accuracy±0.005 mg).
5 to 20 mg of sample was placed in a tared mesh stainless steel basket under ambient conditions. The sample was loaded and unloaded at 40% RH and 25° C. (typical room conditions). A moisture sorption isotherm was performed as outlined below (2 scans giving 1 complete cycle). The standard isotherm was performed at 25° C. at 10% RH intervals over a 0.5-90% RH range. Data analysis was undertaken in Microsoft Excel using DVS Analysis Suite v6.0.0.7. Method Parameters for SMS DVS Intrinsic Experiments are as follows:
The sample was recovered after completion of the isotherm and re-analyzed by XRPD.
as §1, with “SMS Analysis Suite software.” for “DVS Intrinsic Control software v 1.0.0.30.”, “RH” for “RH (relative humidity)”
Typically 5-20 mg of sample was placed in a tared mesh stainless steel basket under ambient conditions. The sample was loaded and unloaded at 40% RH and 25° C. (typical room conditions). A moisture sorption isotherm was performed as outlined below (2 scans giving 1 complete cycle). […]

[5] = pKa determination by potentiometry (methanol/water, Yasuda-Shedlovsky extrapolation); assay type: physicochemical; settings: 25° C., potentiometry with methanol as cosolvent, extrapolated to 0% co-solvent (Yasuda-Shedlovsky)
Procedure: pKa determination data were collected on a Sirius GlpKa instrument with a D-PAS attachment. Measurements were made at 25° C. in aqueous solution by UV and in methanol water mixtures by potentiometry. The titration media was ionic-strength adjusted (ISA) with 0.15 M KCl (aq). The values found in the methanol water mixtures were corrected to 0% co-solvent via a Yasuda-Shedlovsky extrapolation. The data were refined using Refinement Pro software v1.0. Prediction of pKa values was made using ACD pKa prediction software v9.
The pKa of obeticholic acid was measured by potentiometry using methanol as a cosolvent (FIG. 27) and extrapolated to 0% co-solvent using a Yasuda-Shedlovsky extrapolation (FIG. 28). The pKa enables determination of the proportion of the neutral and the ionized form of the compound at a given pH.

Molecule	Plasma concentration of tauro conjugate, crystalline form compared with Form 1 [1]	Plasma obeticholic acid concentration after 3 hours relative to Cmax [1]	Time after which Cmax is achieved ([1]; pH 4)	Water solubility [2]	Cmax, Form 1 compared with Form F [1]	Time of early plasma concentration peak [1]	Time of second plasma concentration peak [1]	Measured LogD7.4 ([3]; octanol/ISA water, pH 7.4)	Measured LogPion ([3]; octanol/ISA water, pure ionized species)	Measured LogP ([3]; three octanol/ISA water ratios)	GVS water uptake / weight change ([4]; 25° C., 0 to 90% RH)	Hygroscopicity (GVS) ([4]; 25° C., 0 to 90% RH, in words)	XRPD analysis after GVS ([4]; sample recovered after isotherm)	Measured pKa [5]
CC[C@H]1[C@@H](O)[C@@H]2[C@H](CC[C@]3(C)[C@@H]([C@H](C)CCC(=O)O)CC[C@@H]23)[C@@]2(C)CC[C@@H](O)C[C@@H]12 [Form F, obeticholic acid]	higher concentration	almost half of the Cmax	1.5 h	9.1 µM										
obeticholic acid [Form 1]					lower	30 min	2 h	2.98	1.58	5.54	3.8%	moderately hygroscopic	still non-crystalline	4.82

From patent US9982008B2, “Preparation and uses of obeticholic acid” (Intercept Pharmaceuticals, Inc., priority 2012, dated 2018)
